Assay results from article PMC8811960, “A Novel 2-Carbon-Linked Dimeric Artemisinin With Potent Antileukemic Activity and Favorable Pharmacology” (Frontiers in Oncology, 2022).
Where a name gives a salt, the structure may show the parent alone.

Key:
[1] = system: MOLM14, MV4;11, and HL60 human AML cells; experiment: Annexin V/7-AAD cell viability and apoptosis; type: cell-based; settings: 30-45 min pre-incubation with 10 nM QVD
Protocol: (§1) Cytotoxicity was assessed using alamarBlue assays (Life Technologies, Grand Island, NY) following manufacturer’s guidelines. Cell death was verified by Annexin V/7-aminoactinomycin D (7AAD) staining (BioLegend, San Diego, CA) per manufacturer’s guidelines.
MOLM14, MV4;11, and HL60 human AML cells were assessed for cell viability and caspase-dependent apoptosis following treatment with ART631 (200 nM), VEN (50 nM), SOR (5 µM), and combinations thereof.
Figure 3 ART631-based combination treatments reduced cell viability in AML cell lines. MOLM14, MV4;11, and HL60 AML cells were each treated for 18h with vehicle (DMSO) control, ART631 alone (200 nM), VEN alone (50 nM), SOR alone (5 uM), and 2- and 3-drug combinations, all with and without a 30-45 min pre-incubation with 10 nM pan-caspase inhibitor QVD-OPh (QVD). Treated cells were stained with 2.5 ug/mL 7-aminoactinomycin D (7-AAD) and 0.5 ug/mL allophycocyanin (APC)-conjugated Annexin V in Annexin V binding buffer and analyzed by flow cytometry. Graphs indicate % cell viability based on Annexin V/7-AAD dual staining. For MOLM14 and MV4;11, means and SDs shown are based on 3 independent experiments. HL60 cell data is from one experiment done in triplicate.

MOLM14 cells = experiment: Total cellular ROS (CM-H2DCFDA flow cytometry); type: cell-based, human; settings: MOLM14, DFO 11 uM, 60 min pre-treatment
Protocol: […] Cells were then treated with ART631 (200 nM) or DMSO control for 18h, with subsequent analysis by flow cytometry. Western blotting and quantitative reverse transcription PCR (qRT-PCR) to assess for molecular markers of ROS-mediated apoptosis were performed as previously described ([20]).
Figure 4 ART631 elevated ROS and CHOP levels and reduced MCL1 expression in MOLM14 AML cells. […] They were then analyzed by flow cytometry. Graph represents %CM-H2DCFDA fluorescence compared to vehicle (DMSO) control treated cells. Error bars represent SD from 3 independent experiments. (B) MOLM14 AML cells were treated for 18h with vehicle, AS (10 uM), ART838 (200 nM), ART631 (200 nM), cytarabine (AraC; 150 nM), or SOR (5 uM). Protein was isolated and western blotted for MCL1, BCL2, CHOP, and β-actin. (C) MOLM14 cells were treated as in (B) for 18h, total RNA isolated, cDNA synthesized, and SYBR Green qRT-PCR performed in triplicates. Ct values were normalized to housekeeping gene GAPDH and fold change shown relative to vehicle (DMSO) control. Error bars represent SD from 3 independent experiments done in triplicate.

K562 = experiment: alamarBlue growth inhibition, K562; type: cell-based; settings: Homo sapiens, K562, 48h, mean of 2 independent assays ± SD
Protocol: as §1

HL60 = experiment: alamarBlue growth inhibition, HL60; type: cell-based; settings: Homo sapiens, HL-60, HL60, 48h, mean of 2 independent assays ± SD
Protocol: as §1

TF1 = experiment: alamarBlue growth inhibition, TF1; type: cell-based; settings: Homo sapiens, TF-1, TF1, 48h, mean of 2 independent assays ± SD
Protocol: as §1

U937 = experiment: alamarBlue growth inhibition, U937; type: cell-based; settings: Homo sapiens, U-937, U937, 48h, mean of 2 independent assays ± SD
Protocol: as §1

THP1 = experiment: alamarBlue growth inhibition, THP1; type: cell-based; settings: Homo sapiens, THP-1, THP1, 48h, mean of 2 independent assays ± SD
Protocol: as §1

MOLM14 = experiment: alamarBlue growth inhibition, MOLM14; type: cell-based; settings: Homo sapiens, MOLM-14; MOLM14, 48h, alamarBlue, mean of 2 independent assays ± SD; read-out: IC50
Protocol: as §1
In this experiment, provided to show the entire concentration:response range, MOLM14 AML cells were cultured with a range of concentrations of artesunate (AS), ART838, ART631, and ART576 for 48h. Graph indicates growth inhibition relative to vehicle (DMSO)-treated controls by alamarBlue absorbance assays. Data points and error bars represent mean and SD of 3 independent experiments done in triplicate.

10 human AML cell lines = experiment: alamarBlue growth inhibition, panel of 10 human AML cell lines; type: cell-based
Protocol: as §1
Cell lines with adverse risk cytogenetic and molecular features, e.g. MLL rearrangements (ML2, MOLM14, MV4;11, THP1), FLT3-ITD (MOLM14, MV4;11), TP53 mutations (KG1a, ML2, THP1, U937), and NRAS/KRAS mutations (ML2, THP1), were among those exquisitely sensitive to ART631, with IC50s < 50 nM. The K562 cell line was the only exception, as it was resistant to all 3 of these ARTs. Based on this in vitro activity data combined with the drug stability data described below, ART631 was prioritized over ART576 for further in vitro and in vivo antileukemic efficacy experiments here ( Table 2 ).

MV4;11 = experiment: alamarBlue growth inhibition, MV4;11; type: cell-based; settings: Homo sapiens, MV4;11, 48h, mean of 2 independent assays ± SD
Protocol: as §1

[2] = Phase I microsomal stability, mouse liver microsomes; type: in vitro ADME
Protocol: (§2) The metabolic stability of ART631 was assessed in human and mouse plasma and liver microsomes (LM). For phase I microsomal stability assays, analogs (10 µM in <1% acetonitrile) were incubated in PBS containing liver microsomes, with or without cofactors ([22]). Microsomal controls (without cofactors) were used to determine non-enzymatic degradation. All experiments were incubated at 37°C for 1h and performed in duplicate. Reactions were stopped with acetonitrile and analyzed as described below.
(§3) ART631 was extracted from 25 µL plasma or microsomal solutions with 100 µL acetonitrile containing artemisinin (i.e. the natural product) as internal standard. […] Mobile phase A was ammonium acetate (2mM) containing 0.1% formic acid, and mobile phase B was acetonitrile containing 0.1% formic acid. The gradient started with mobile phase B and was held at 40% for 0.5 minutes with a flow rate of 0.4 mL/min, then increased to 100% over 1.5 minutes and held for 2.0 minutes, and finally returned back to 40% mobile phase B and allowed to equilibrate for 2.0 minutes. An AB Sciex 5500 triple quadrupole mass spectrometer operated in positive electrospray ionization mode was used for the detection of ART631. For stability studies, the ratio of ART631 to the internal standard, artemisinin, was assessed. Calibration curves for ART631 were computed using the ratio of the peak area to that of the internal standard by using a quadratic equation with a 1/x^2 weighting function over the range of 8-1585 nM with dilutions of up to 1:10 (v/v).

[3] = Phase I microsomal stability, human liver microsomes; type: in vitro ADME
Protocol: as §2, §3

[4] = Stability in human plasma (EDTA); type: in vitro ADME; settings: 10 µM, 37°C, 1h
Protocol: as §2
as §3, with “Calibration curves for ART631 were computed using the ratio of the peak area to that of the internal standard by using a quadratic equation with a 1/x^2 weighting function over the range of 8-1585 nM with dilutions of up to 1:10 (v/v).” left out

KG1a = experiment: alamarBlue growth inhibition, KG1a; type: cell-based; settings: Homo sapiens, KG-1a, 48h, mean of 2 independent assays ± SD
Protocol: as §1

ML2 = experiment: alamarBlue growth inhibition, ML2; type: cell-based; settings: Homo sapiens, ML-2, ML2, 48h, mean of 2 independent assays ± SD
Protocol: as §1

HEL = experiment: alamarBlue growth inhibition, HEL; type: cell-based; settings: Homo sapiens, 48h, mean of 2 independent assays ± SD
Protocol: as §1

Stability in plasma = type: in vitro ADME, human and mouse; settings: species not given
Protocol: as §2
We compared the in vitro stability of ART576 and ART631 ( Table 3 ). ART576 was stable in plasma (<10% degradation), but unstable with degradation of >70% in human liver microsomes with co-factors and >90% in mouse liver microsomes with co-factors ( Table 3 ).

[5] = Stability in mouse plasma (EDTA); type: in vitro ADME; settings: 10 µM, 37°C, 1h
Protocol: as §2
as §3, with “Calibration curves for ART631 were computed using the ratio of the peak area to that of the internal standard by using a quadratic equation with a 1/x^2 weighting function over the range of 8-1585 nM with dilutions of up to 1:10 (v/v).” left out

[6] = 10 µM, 37°C, 1h, with cofactors
[7] = 10 µM, 37°C, 1h, without cofactors
[8] = NADPH-dependent phase I metabolism

In the case of CC(C)[C@H](NC(=O)c1ccc2ccccc2n1)C(=O)N[C@@H](CC(=O)O)C(=O)COc1c(F)cccc1F [QVD-OPh], the “effect of pre-treatment on apoptosis and cell death for all drugs and combinations” value [1] is reported as “almost fully inhibited”.
For CC(=O)N(O)CCCCCNC(=O)CCC(=O)N(O)CCCCCNC(=O)CCC(=O)N(O)CCCCCN [deferoxamine mesylate, reference compound], the “effect of pre-treatment on ROS generation by ART631” value (MOLM14 cells) was “diminished”.
In the case of C[C@@H]1CCC2[C@@H](C)[C@@H](C(=O)C[C@H]3O[C@@H]4O[C@@]5(C)CCC6[C@H](C)CCC([C@H]3C)[C@]64OO5)O[C@@H]3O[C@@]4(C)CCC1[C@@]23OO4 (some centres unmarked) [ART576], the IC50 (K562) is reported as greater than 1000 nM, the IC50 (HL60) is reported as 72 ± 18 nM and the IC50 (TF1) is reported as 49 ± 12 nM. The IC50 (U937) was 23 ± 1 nM, the IC50 (THP1) was greater than 1000 nM and the IC50 (MOLM14) was 43 ± 7 nM. The “number of human AML cell lines whose growth was inhibited” value (10 human AML cell lines; of 10 human AML cell lines tested) was 8, the IC50 (10 human AML cell lines; range over the inhibited cell lines of 10 human AML cell lines, read-out: IC50 range) was 23 to 105 nM and the IC50 (MV4;11) was 38 ± 10 nM. The “percentage remaining, Phase I Metabolism MLM NADPH(+)” value [2, 6] was 7%, the “percentage remaining, Phase I Metabolism MLM NADPH(-)” value [2, 7] was 96% and the “degradation in mouse liver microsomes with co-factors” value [2, 8] was greater than 90%. The “percentage remaining, Phase I Metabolism HLM NADPH(+)” value [3, 6] was 26%, the “percentage remaining, Phase I Metabolism HLM NADPH(-)” value [3, 7] was 89% and the “degradation in human liver microsomes with co-factors” value [3, 8] was greater than 70%. For the same compound, the “percentage remaining, Plasma (EDTA) Human” value [4] was 91%, the IC50 (KG1a) was 64 ± 4 nM and the IC50 (ML2) was 105 ± 12 nM. The IC50 (HEL) was 80 ± 19 nM, the degradation in plasma (Stability in plasma) was less than 10% and the “percentage remaining, Plasma (EDTA) Mouse” value [5] was 101%.
